This note sets out measurements from US10329324B2 (viDA Therapeutics Inc., priority 2013, dated 2019).

Molecules are shown by their SMILES. Like-named read-outs stand apart in the source and are kept apart here. Where only a bound is given, the exact number is not on record here.

One series has as its target T1, human Granzyme B (hGzmB) (Homo sapiens, UniProt P10144).
T1 construct: purchased Froelich Lab, Northshore University Health Systems Research Institute, Evanston, Ill., USA
The experiment in a line: Human Granzyme B enzymatic inhibition assay (fluorogenic, kinetic). To be noted: activity codes, Table 7; read-out: IC50 Activity Range. Format: biochemical. The essentials:
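Human Granzyme B preincubated with compound for 30 min total (5 min shaking, 20 min bench, then reaction temperature). Fluorogenic substrate added and read kinetically, 25 cycles at 1-min intervals. Percent inhibition at one or two concentrations or 8–12-point 3-fold dose response from 20 uM, replicates, with IC50 by non-linear regression.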

Series [1] in a line: Kinetic solubility determination in PBS. Format: physicochemical. The conditions noted are these: PBS 1X pH 7.4, 2.0% DMSO, 24 hour incubation at ambient temperature; for solubility at 24 h: phosphate buffered saline (PBS 1×), 21 °C, pH 7.4, aqueous buffer, kinetic from dmso stock. The protocol:
Kinetic solubility buffer (phosphate buffered saline (PBS, 1×) at pH 7.4) was prepared from PBS (10×) solution, (Fisher Scientific, Pittsburgh, Pa., USA, 10×), by adding PBS (50 mL, 10×) to approximately water (450 mL HPLC grade). The volume of the solution was then adjusted to 500 mL for a total dilution factor of 1:10 and a final PBS concentration of 1×. The pH of the final solution (PBS (1×)) was measured and found to be 7.4.
A DMSO stock solution (typically 10 mM or greater) was used for each compound to be tested. A final DMSO concentration of 2.0% and maximum theoretical compound concentration of typically 200 μM (or greater) was achieved by diluting an aliquot (6 μl) of each stock with kinetic solubility buffer (294 μl, PBS (1×) at pH 7.4) using a liquid handling system (Hamilton STARlet, Hamilton Robotics, Inc., Reno, Nev., USA) and incubated directly in a solubility filter plate (Millipore, Billerica, Mass., USA). Following 24 hour incubation at ambient temperature (20.5-21.7° C.), each sample was vacuum filtered. The filtrate was injected into the chemiluminescent nitrogen detector for quantification (Automated Discovery Workstation, Analiza, Inc., Cleveland, Ohio, USA). Each result was reported both in μM and μg/mL units. Three separate on-board performance indicating standards were assayed in triplicate with each test compound to ensure test results were within the acceptable range.
The equimolar nitrogen response of the detector was calibrated using standards which spanned the dynamic range of the instrument from 0.08 to 4500 μg/ml nitrogen. Each filtrate was quantified with respect to this calibration curve. Each calculated solubility value was corrected for background nitrogen present in the DMSO, and buffer used to prepare each sample. All reported values for samples containing adjacent nitrogen atoms in a ring structure were corrected for the expected non-equimolar response. Each calculated solubility result assumed that each sample was free of nitrogen containing impurities and was stable under the assay conditions. Analyses were performed at Analiza Inc. (Cleveland, Ohio, USA) by published methods (Bhattachar, S. N., et al, J. Pharma. BioMed Anal. 41:152-7 2006).

The mark [2] stands for this setting: read-out: Solubility in aqueous PBS Buffer (1X, pH 7.4).
[3] abbreviates: read-out: Solubility in aqueous PBS Buffer (1X, pH 7.4), ug/mL.

T1 sequence (P10144 21-247): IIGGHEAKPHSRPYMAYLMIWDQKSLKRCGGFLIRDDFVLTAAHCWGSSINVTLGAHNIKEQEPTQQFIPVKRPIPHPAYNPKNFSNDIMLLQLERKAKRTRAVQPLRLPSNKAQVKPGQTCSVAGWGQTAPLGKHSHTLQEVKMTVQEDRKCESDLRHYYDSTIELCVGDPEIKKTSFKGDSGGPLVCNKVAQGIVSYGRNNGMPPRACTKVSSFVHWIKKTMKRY

On to `CC[C@H](C)[C@H](NC(=O)CC(C)CC(=O)O)C(=O)NCC(=O)N1c2ccccc2C[C@H]1C(=O)NCc1nn[nH]n1` (single isomer, unassigned) [Example A17-1], for which the IC50 on human Granzyme B (hGzmB) was in the range of 100 to 1000 nM. The solubility at 24 h in series [1] (setting [2]) was more than 750 µM; in series [1] (setting [3]) it was more than 407 µg/mL.

As to `CC[C@H](C)[C@H](NC(=O)CC(C)CC(=O)O)C(=O)NCC(=O)N1c2ccccc2C[C@H]1C(=O)NCc1nn[nH]n1` (single isomer, unassigned) [Example A17-2], on human Granzyme B (hGzmB), the IC50 was in the range of 100 to 1000 nM. In series [1], the “Solubility in aqueous PBS Buffer (1X, pH 7.4), uM” value (from here on “Solubility … uM”) is reported as more than 750 uM and the “Solubility in aqueous PBS Buffer (1X, pH 7.4), ug/mL” value (from here on “Solubility … ug/mL”) is on record as more than 407 ug/mL.

As to `CC[C@H](C)[C@H](NC(=O)C1CCCCC1C(=O)O)C(=O)NCC(=O)N1c2ccccc2C[C@H]1C(=O)NCc1nn[nH]n1` (single isomer, unassigned) [Example A20-1], the half-maximal inhibitory concentration (IC50) at human Granzyme B (hGzmB) is less than 100 nM. The solubility at 24 h amounted to 535 µM in series [1] (setting [2]) and 358 µg/mL in series [1] (setting [3]).

For `CC[C@H](C)[C@H](NC(=O)C1CCCCC1C(=O)O)C(=O)NCC(=O)N1c2ccccc2C[C@H]1C(=O)NCc1nn[nH]n1` (single isomer, unassigned) [Example A20-2], the IC50 at human Granzyme B (hGzmB) is less than 100 nM. In series [1], the “Solubility … uM” value was found to be 641 uM and the “Solubility … ug/mL” value worked out at 429 ug/mL.

Consider `CC[C@H](C)[C@H](NC(=O)C1CC=CCC1C(=O)O)C(=O)NCC(=O)N1c2ccccc2C[C@H]1C(=O)NCc1nn[nH]n1` (single isomer, unassigned) [Example A21-1], for which, at human Granzyme B (hGzmB), the half-maximal inhibitory concentration (IC50) was less than 100 nM. Also, the values for the solubility at 24 h in series [1] (setting [2]) and in series [1] (setting [3]) were more than 750 µM and more than 425 µg/mL, respectively.

Take `CC[C@H](C)[C@H](NC(=O)C1CC=CCC1C(=O)O)C(=O)NCC(=O)N1c2ccccc2C[C@H]1C(=O)NCc1nn[nH]n1` (single isomer, unassigned) [Example A21-2]: the IC50 on human Granzyme B (hGzmB) is less than 100 nM. In series [1], the “Solubility … uM” value was more than 750 uM and the “Solubility … ug/mL” value is given as more than 425 ug/mL.

As for `CC[C@H](C)[C@H](NC(=O)C1CCCC1C(=O)O)C(=O)NCC(=O)N1c2ccccc2C[C@H]1C(=O)NCc1nn[nH]n1` (single isomer, unassigned) [Example A22-1], the concentration for half-maximal inhibition (IC50) at human Granzyme B (hGzmB) is less than 100 nM. The solubility at 24 h in series [1] (setting [2]) is more than 750 µM; in series [1] (setting [3]) it was more than 416 µg/mL.

For the compound `CC[C@H](C)[C@H](NC(=O)C1CCCC1C(=O)O)C(=O)NCC(=O)N1c2ccccc2C[C@H]1C(=O)NCc1nn[nH]n1` (single isomer, unassigned) [Example A22-2], the IC50 at human Granzyme B (hGzmB) was less than 100 nM. For the same compound, in series [1], the “Solubility … uM” value was more than 750 uM and the “Solubility … ug/mL” value is more than 416 ug/mL.

Consider `CC[C@H](C)[C@H](NC(=O)C1CCCCC1C(=O)O)C(=O)NCC(=O)N1c2ccccc2C[C@H]1C(=O)NCc1nn[nH]n1` (single isomer, unassigned) [Example A23-1], for which the IC50 on human Granzyme B (hGzmB) is less than 100 nM. Besides, in series [1], the “Solubility … uM” value was more than 750 uM and the “Solubility … ug/mL” value is reported as more than 426 ug/mL.

In the case of `CC[C@H](C)[C@H](NC(=O)C1CCCCC1C(=O)O)C(=O)NCC(=O)N1c2ccccc2C[C@H]1C(=O)NCc1nn[nH]n1` (single isomer, unassigned) [Example A23-2], the half-inhibitory concentration (IC50) on human Granzyme B (hGzmB) was less than 100 nM. In addition, in series [1], the “Solubility … uM” value was determined as 679 uM and the “Solubility … ug/mL” value is 386 ug/mL.

Take `CC[C@H](C)[C@H](NC(=O)C1CC1C(=O)O)C(=O)NCC(=O)N1c2ccccc2C[C@H]1C(=O)NCc1nn[nH]n1` (single isomer, unassigned) [Example A26-1]: the IC50 on human Granzyme B (hGzmB) is less than 100 nM. Also, the solubility at 24 h is more than 750 µM in series [1] (setting [2]) and more than 395 µg/mL in series [1] (setting [3]).

`CC[C@H](C)[C@H](NC(=O)C1CC1C(=O)O)C(=O)NCC(=O)N1c2ccccc2C[C@H]1C(=O)NCc1nn[nH]n1` (single isomer, unassigned) [Example A26-2]: the IC50 at human Granzyme B (hGzmB) was less than 100 nM. Further, in series [1], the “Solubility … uM” value is reported as 685 uM and the “Solubility … ug/mL” value was found to be 361 ug/mL.

`CC[C@H](C)[C@H](NC(=O)C(C)CC(=O)O)C(=O)NCC(=O)N1c2ccccc2C[C@H]1C(=O)NCc1nn[nH]n1` (single isomer, unassigned) [Example A30-1]: the half-inhibitory concentration (IC50) at human Granzyme B (hGzmB) was less than 100 nM. Also, the solubility at 24 h was more than 750 µM in series [1] (setting [2]) and more than 396 µg/mL in series [1] (setting [3]).

With `CC[C@H](C)[C@H](NC(=O)C(C)CC(=O)O)C(=O)NCC(=O)N1c2ccccc2C[C@H]1C(=O)NCc1nn[nH]n1` (single isomer, unassigned) [Example A30-2], the IC50 at human Granzyme B (hGzmB) was less than 100 nM. In series [1], the “Solubility … uM” value is more than 750 uM and the “Solubility … ug/mL” value is more than 396 ug/mL.

Take `CC[C@H](C)[C@H](NC(=O)C(CCC(=O)O)c1ccccc1)C(=O)NCC(=O)N1c2ccccc2C[C@H]1C(=O)NCc1nn[nH]n1` (single isomer, unassigned) [Example A54-1]: on human Granzyme B (hGzmB), the IC50 was less than 100 nM. The solubility at 24 h in series [1] (setting [2]) was 451 µM; in series [1] (setting [3]), 273 µg/mL.

Take `CC[C@H](C)[C@H](NC(=O)C(CCC(=O)O)c1ccccc1)C(=O)NCC(=O)N1c2ccccc2C[C@H]1C(=O)NCc1nn[nH]n1` (single isomer, unassigned) [Example A54-2]: the half-inhibitory concentration (IC50) on human Granzyme B (hGzmB) was less than 100 nM. Also, in series [1], the “Solubility … uM” value is more than 750 uM and the “Solubility … ug/mL” value is recorded as more than 454 ug/mL.

Take `CC[C@H](C)[C@H](NC(=O)Cc1ccccc1)C(=O)NCC(=O)N1c2ccccc2C[C@H]1C(=O)NCc1nn[nH]n1` [Example A1, (2S)-1-{2-[(2S,3S)-3-Methyl-2-(2-Phenylacetamido)Pentanamido]Acetyl}-N-(2H-1,2,3,4-Tetrazol-5-Ylmethyl)-2,3-Dihydro-1H-Indole-2-Carboxamide]: the IC50 at human Granzyme B (hGzmB) is 100 to 1000 nM. In addition, the solubility at 24 h in series [1] (setting [2]) was found to be 144 µM; in series [1] (setting [3]) it was 77 µg/mL.

For the compound `CC[C@H](C)[C@H](NC(=O)Cc1ccccc1)C(=O)NCC(=O)N1c2ccc(NCc3ccccc3)cc2C[C@H]1C(=O)NCc1nn[nH]n1` [Example C35], the 50% inhibitory concentration (IC50) on human Granzyme B (hGzmB) was more than 10000 nM.

Consider `O=C(O)CCC(=O)N[C@H](C(=O)NCC(=O)N1c2ccccc2C[C@H]1C(=O)NCc1nn[nH]n1)c1ccccc1` [Example C38, 3-{[(S)-({2-Oxo-2-[(2S)-2-[(2H-1,2,3,4-Tetrazol-5-Ylmethyl)Carbamoyl]-2,3-Dihydro-1H-Indol-1-Yl]Ethyl}Carbamoyl)(Phenyl)Methyl]Carbamoyl}Propanoic Acid], for which the IC50 at human Granzyme B (hGzmB) lay within 100 to 1000 nM.

For the compound `CC[C@H](C)[C@H](NC(=O)Cc1nn[nH]n1)C(=O)NCC(=O)N1c2ccccc2C[C@H]1C(=O)NCc1c[nH]nn1` [Example C39, (2S)-1-{2-[(2S,3S)-3-Methyl-2-[2-(2H-1,2,3,4-Tetrazol-5-Yl)Acetamido]Pentanamido]Acetyl}-N-(1H-1,2,3-Triazol-4-Ylmethyl)-2,3-Dihydro-1H-Indole-2-Carboxamide], the concentration for half-maximal inhibition (IC50) at human Granzyme B (hGzmB) is less than 100 nM.

Consider `CC[C@H](C)[C@H](NC(=O)OC(C)(C)C)C(=O)NCC(=O)N1c2ccccc2C[C@H]1C(=O)NCc1nn[nH]n1` [Example I-5, tert-Butyl N-[(1S,2S)-2-methyl-1-({2-oxo-2-[(2S)-2-[(2H-1,2,3,4-tetrazol-5-ylmethyl)carbamoyl]-2,3-dihydro-1H-indol-1-yl]ethyl}carbamoyl)butyl]carbamate], for which the IC50 at human Granzyme B (hGzmB) was in the range of 1000 to 10000 nM.

Usually IC50 stands for the concentration at which inhibition is half-maximal.
